Source: the NIST ThermoML archive (doi:10.1016/j.jct.2018.01.003)

Settings: 101.33 kPa, Liquid, Vibrating tube method

CCCCCCCCCCCCCC[P+](CCCCCC)(CCCCCC)CCCCCC.N#CC(=C=[N-])C#N [trihexyltetradecylphosphonium tricyanomethanide]
Settings | mass density [kg/m3]
298.15 K | 900.77
308.15 K | 894.91
318.15 K | 889.05
328.15 K | 883.23
338.15 K | 877.43
348.15 K | 871.66
358.15 K | 865.92
368.15 K | 860.2
